In patent publication US7868046B2, “(2R)-2-[(4-sulfonyl) aminophenyl] propanamides and pharmaceutical compositions containing them” (Dompe' Pha.r.ma S.p.A., priority 2006, dated 2011):

Assays:
human PMNs [1] = test: CXCL8 induced human PMN chemotaxis inhibition; format: cell-based; settings: hPMN chemotaxis, compound at 10^−7 M; for inhibition at 0.1 µM: Homo sapiens
Description: (§1) The compounds of the invention of formula (I) were evaluated in vitro for their ability to inhibit chemotaxis of polymorphonucleate leukocytes (hereinafter referred to as PMNs) and monocytes induced by the fractions of IL-8 and GRO-α. For this purpose, in order to isolate the PMNs from heparinized human blood, taken from healthy adult volunteers, mononucleates were removed by means of sedimentation on dextran (according to the procedure disclosed by W. J. Ming et al., J. Immunol., 138, 1469, 1987) and red blood cells by a hypotonic solution. The cell vitality was calculated by exclusion with Trypan blue, whilst the ratio of the circulating polymorphonucleates was estimated on the cytocentrifugate after staining with Diff Quick.
In the CXCL8 induced chemotaxis assay human recombinant CXCL8 (Pepro Tech) was used as stimulating agents in the chemotaxis experiments: the lyophilized protein was dissolved in a volume of HBSS containing 0.2% bovin serum albumin (BSA) so thus to obtain a stock solution having a concentration of 10^−5 M to be diluted in HBSS to a concentration of 10^−8 M, for the chemotaxis assays.
(§2) In the chemotaxis experiments, the PMNs were incubated with the compounds of the invention of formula (I) for 15′ at 37° C. in an atmosphere containing 5% CO2.
(§3) During the chemotaxis assay [W. Falket et al., J. Immunol. Methods, 33, 239, 1980] PVP-free filters with a porosity of 5 μm and microchambers suitable for replication were used.
(§4) The compounds of the invention in formula (I) were evaluated at a concentration ranging between 10^−6 and 10^−10 M; for this purpose they were added, at the same concentration, both to the lower pores and the upper pores of the microchamber. Evaluation of the ability of the compounds of the invention of formula (I) to inhibit the chemotaxis of human monocytes was carried out according to a disclosed method [Van Damme J. et al., Eur. J. Immunol., 19, 2367, 1989].

human PMNs [2] = test: CXCL1 (GRO-α) induced human PMN chemotaxis inhibition; format: cell-based; settings: hPMN chemotaxis, compound at 10^−8 M; for inhibition at 0.01 µM: Homo sapiens
Description: as §1
GRO-α induced chemotaxis inhibition was evaluated in an analogous assay.
as §2, §3, §4

Work on `CC(C)S(=O)(=O)Nc1ccc([C@@H](C)C(N)=O)cc1` [Compound 1, (2R)-2-{4-[(Isopropylsulfonyl]amino}phenyl)propanamide] yielded a melting point of 125 to 127 °C, an inhibition at 0.1 µM (human PMNs [1]) of 7 ± 18% and an inhibition at 0.01 µM (human PMNs [2]) of 67 ± 7%.

`C[C@@H](C(N)=O)c1ccc(NS(=O)(=O)c2ccccc2Cl)cc1` [Compound 2, (2R)-2-{4-{[(2-chlorophenyl)sulfonyl]amino}phenyl)propanamide] gave an inhibition at 0.1 µM (human PMNs [1]) of 19 ± 5% and an inhibition at 0.01 µM (human PMNs [2]) of 41 ± 7%.

For `C[C@@H](C(N)=O)c1ccc(NS(=O)(=O)c2c(Cl)cccc2Cl)cc1` [Compound 3, (2R)-2-{4-{[(2,6-dichlorophenyl)sulfonyl]amino}phenyl)propanamide], the inhibition at 0.1 µM (human PMNs [1]) was 14 ± 5% and the inhibition at 0.01 µM (human PMNs [2]) was 39 ± 10%.

Work on `C[C@@H](C(N)=O)c1ccc(NS(C)(=O)=O)cc1` [Compound 4, (2R)-2-{4-[(methylsulfonyl)amino]phenyl}propanamide] yielded an inhibition at 0.1 µM (human PMNs [1]) of 10 ± 7% and an inhibition at 0.01 µM (human PMNs [2]) of 75 ± 7%.

For `C[C@@H](C(N)=O)c1ccc(NS(=O)(=O)c2ccccc2)cc1` [Compound 5, (2R)-2-{4-[(phenylsulfonyl)amino]phenyl}propanamide], the melting point was 152 to 153 °C, the inhibition at 0.1 µM (human PMNs [1]) was 15 ± 10% and the inhibition at 0.01 µM (human PMNs [2]) was 44 ± 9%.

`Cc1ccc(S(=O)(=O)Nc2ccc([C@@H](C)C(N)=O)cc2)cc1` [Compound 6, (2R)-2-{4-{[(4-methylphenyl)sulfonyl]amino}phenyl)propanamide] gave a melting point of 138 to 140 °C, an inhibition at 0.1 µM (human PMNs [1]) of 12 ± 10% and an inhibition at 0.01 µM (human PMNs [2]) of 65 ± 4%.

`COc1ccc(S(=O)(=O)Nc2ccc([C@@H](C)C(N)=O)cc2)cc1` [Compound 7, (2R)-2-{4-{[(4-methoxylphenyl)sulfonyl]amino}phenyl)propanamide] gave a melting point of 118 to 120 °C, an inhibition at 0.1 µM (human PMNs [1]) of 9 ± 7% and an inhibition at 0.01 µM (human PMNs [2]) of 71 ± 11%.

For `C[C@@H](C(N)=O)c1ccc(NS(=O)(=O)Cc2ccccc2)cc1` [Compound 8, (2R)-2-(4-[(benzylsulfonyl]amino}phenyl)propanamide], the melting point was 68 to 70 °C, the inhibition at 0.1 µM (human PMNs [1]) was 14 ± 9% and the inhibition at 0.01 µM (human PMNs [2]) was 58 ± 6%.

Compound `C[C@@H](C(N)=O)c1ccc(NS(=O)(=O)c2ccc(Cl)cc2)cc1` [Compound 9, (2R)-2-(4-{[(4-chlorophenyl)sulfonyl]amino}phenyl)propanamide] has a melting point of 150 to 153 °C, an inhibition at 0.1 µM (human PMNs [1]) of 20 ± 4% and an inhibition at 0.01 µM (human PMNs [2]) of 53 ± 12%.

`C[C@@H](C(N)=O)c1ccc(NS(=O)(=O)c2ccc(C(F)(F)F)cc2)cc1` [Compound 10, (2R)-2-(4-{[(4-(trifluoromethyl)phenyl]sulfonyl}amino)phenyl]propanamide] gave a melting point of 178 to 180 °C, an inhibition at 0.1 µM (human PMNs [1]) of 15 ± 7% and an inhibition at 0.01 µM (human PMNs [2]) of 69 ± 5%.

Work on `C[C@@H](C(N)=O)c1ccc(NS(=O)(=O)c2cccs2)cc1` [Compound 11, (2R)-2-{4-[(thien-2ylsulfonyl)amino]phenyl}propanamide] yielded a melting point of 58 to 60 °C, an inhibition at 0.1 µM (human PMNs [1]) of 17 ± 4% and an inhibition at 0.01 µM (human PMNs [2]) of 50 ± 2%.

For `C[C@@H](C(N)=O)c1ccc(NS(=O)(=O)C2CCCC2)cc1` [Compound 12, (2R)-2-{4-[(cyclopentylsulfonyl)amino]phenyl}propanamide], the inhibition at 0.1 µM (human PMNs [1]) was 21 ± 10% and the inhibition at 0.01 µM (human PMNs [2]) was 67 ± 7%.

For `C[C@@H](C(N)=O)c1ccc(NS(=O)(=O)C(F)(F)F)cc1` [Compound 13, (2R)-2-(4-{[(trifluoromethyl)sulfonyl]amino}phenyl)propanamide], the inhibition at 0.1 µM (human PMNs [1]) was 24 ± 7% and the inhibition at 0.01 µM (human PMNs [2]) was 75 ± 11%.

Work on `CNC(=O)[C@H](C)c1ccc(NS(=O)(=O)C(C)C)cc1` [Compound 14, (2R)-2-{4-[(isopropylsulfonyl]amino}phenyl)-N-methylpropanamide] yielded an inhibition at 0.1 µM (human PMNs [1]) of 8 ± 9% and an inhibition at 0.01 µM (human PMNs [2]) of 64 ± 8%.

In the case of `CC(C)S(=O)(=O)Nc1ccc([C@@H](C)C(=O)N[C@@H](C)C(N)=O)cc1` [Compound 15, (2R)—N-[(1S)-2-amino-1-methyl-2-oxoethyl]-2-{4-[(isopropylsulfonyl]amino}phenyl) propanamide], the “CXCL8 (% inhibition at 10^−7 M)” value (human PMNs [1]) is reported as 10 ± 8% and the “CXCL1 (% inhibition at 10^−8 M)” value (human PMNs [2]) is reported as 58 ± 2%.

In the case of `CC(C)S(=O)(=O)Nc1ccc([C@@H](C)C(=O)Nc2nc(C(F)(F)F)cs2)cc1` [Compound 16, (2R)-2-{4-[(isopropylsulfonyl]amino}phenyl)-N-[4-(trifluoromethyl)-1,3-thiazol-2-yl]propanamide], the inhibition at 0.1 µM (human PMNs [1]) is reported as 11 ± 7% and the inhibition at 0.01 µM (human PMNs [2]) is reported as 49 ± 10%.

`C[C@@H](C(=O)Nc1nc(C(F)(F)F)cs1)c1ccc(NS(=O)(=O)c2ccccc2Cl)cc1` [Compound 17, (2R)-2-{4-{[(2-chlorophenyl)sulfonyl]amino}phenyl)-N-[4-(trifluoromethyl)-1,3-thiazol-2-yl]propanamide] showed an inhibition at 0.1 µM (human PMNs [1]) of 14 ± 11% and an inhibition at 0.01 µM (human PMNs [2]) of 40 ± 12%.

In the case of `C[C@@H](C(=O)NCCOCCO)c1ccc(NS(=O)(=O)c2ccccc2Cl)cc1` [Compound 18, (2R)-2-{4-{[(2-chlorophenyl)sulfonyl]amino}phenyl)-N-[2-(2-hydroxyethoxy)ethyl]propanamide], the inhibition at 0.1 µM (human PMNs [1]) is reported as 6 ± 7% and the inhibition at 0.01 µM (human PMNs [2]) is reported as 59 ± 5%.

With `C[C@@H](C(=O)NC1CC1)c1ccc(NS(=O)(=O)c2ccccc2Cl)cc1` [Compound 19, (2R)-2-{4-{[(2-chlorophenyl)sulfonyl]amino}phenyl)-N-cyclopropylpropanamide] the inhibition at 0.1 µM (human PMNs [1]) was 19 ± 4% and the inhibition at 0.01 µM (human PMNs [2]) was 60 ± 8%.
